{"source": "patent US8486974B2", "about": "(priority 2007, dated 2013)", "key": {"in vitro": {"test": "in vitro", "conditions": "human, plasma, pH 7.4"}, "[1]": {"test_system": "esterases found in CACO-2 cells", "test": "Stability towards esterases found in CACO-2 cells", "format": "in vitro ADME"}, "[2]": {"test": "Hydrolysis in rabbit plasma", "format": "in vitro ADME", "description": "Pooled plasma/serum solutions (4 ml) were prepared to the correct strength by dilution of plasma with phosphate buffer pH 7.4 (e.g. for a 10% solution 0.4 ml of plasma/serum was added to 3.6 ml of phosphate buffer pH 7.4). Following equilibration of the plasma/serum sample at 37±0.5° C. 100 μl of a stock solution of test compound in acetonitrile (1×10^−4 M) was added and 250 μl aliquots were removed at specified time intervals. Samples were transferred to 1.5 ml Eppendorf tubes containing 500 μl of a 2% w/v solution of nSO4.7H2O (water:acetonitrile, 1:1). Tubes were vortexed for 2 minutes, then centrifuged at 10,000 rpm for 3 minutes at room temperature. Supernatant was aspirated off and analysed by HPLC. The concentration of test compound and metabolites were determined with reference to calibration curves run on that day in the same concentration range and under the same experimental conditions. […] The metabolic fate of the esters under these conditions was also determined by RPHPLC by measuring the concentration of drug and metabolites in the medium as a function of time. […] The BuChE activity of plasma and microsomal samples was determined using the Ellman assay (Ellman et al., 1964). […]"}, "[3]": {"test_system": "human platelet aggregation to arachidonic acid", "test": "Human platelet aggregation to arachidonic acid in platelet rich plasma", "format": "cell-based", "description": "Blood was collected from healthy volunteers who had not taken any drugs known to affect platelet function for at least 14 days prior to the study. Platelet rich plasma (PRP) and washed platelet suspensions (2.5×10^8 platelets/ml) were prepared from blood as previously described.\nPlatelet aggregation was measured by light aggregometry as previously described. Briefly, PRP and washed platelet samples (2.5×10^8/ml) were placed in a whole blood ionized calcium lumi-aggregometer (Chronolog Corp., Havertown, Pa., U.S.A), and (BIO/DATA CORPORATION) and incubated for 10 min at 37° C., with stirring at 900 r.p.m., prior to the addition of aggregating agents. Aggregation was initiated by the addition of agonists, and monitored by Aggro-Link software for at least 6 min. For experiments using inhibitors, aggregation was initiated after 10 min preincubation with these compounds"}, "[4]": {"target": "T1, purified human serum BuChE (Homo sapiens, UniProt P06276)", "T1 construct": "Purified human serum butyrylcholinesterase (EC 3.1.1.8); purchased Sigma-Aldrich; host or cells: human serum", "T1 sequence (P06276 29-602)": "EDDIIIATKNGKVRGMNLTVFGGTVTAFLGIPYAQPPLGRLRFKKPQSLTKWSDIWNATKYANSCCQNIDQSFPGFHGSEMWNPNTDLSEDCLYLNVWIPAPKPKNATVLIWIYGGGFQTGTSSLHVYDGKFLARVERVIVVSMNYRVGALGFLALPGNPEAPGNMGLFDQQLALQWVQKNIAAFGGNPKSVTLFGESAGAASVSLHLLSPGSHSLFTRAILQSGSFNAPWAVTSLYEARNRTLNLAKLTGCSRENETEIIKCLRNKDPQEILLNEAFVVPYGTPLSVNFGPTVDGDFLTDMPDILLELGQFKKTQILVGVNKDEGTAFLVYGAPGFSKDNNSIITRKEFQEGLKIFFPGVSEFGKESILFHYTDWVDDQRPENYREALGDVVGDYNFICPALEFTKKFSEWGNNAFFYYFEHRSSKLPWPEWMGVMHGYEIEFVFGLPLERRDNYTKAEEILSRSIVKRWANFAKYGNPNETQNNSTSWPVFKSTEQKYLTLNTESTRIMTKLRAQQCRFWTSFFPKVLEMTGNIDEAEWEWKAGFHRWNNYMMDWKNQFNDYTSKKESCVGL", "test": "Hydrolysis by purified human serum butyrylcholinesterase", "format": "in vitro ADME", "conditions": "purified butyrylcholinesterase", "description": "Pooled plasma/serum solutions (4 ml) were prepared to the correct strength by dilution of plasma with phosphate buffer pH 7.4 (e.g. for a 10% solution 0.4 ml of plasma/serum was added to 3.6 ml of phosphate buffer pH 7.4). Following equilibration of the plasma/serum sample at 37±0.5° C. 100 μl of a stock solution of test compound in acetonitrile (1×10^−4 M) was added and 250 μl aliquots were removed at specified time intervals. Samples were transferred to 1.5 ml Eppendorf tubes containing 500 μl of a 2% w/v solution of nSO4.7H2O (water:acetonitrile, 1:1). Tubes were vortexed for 2 minutes, then centrifuged at 10,000 rpm for 3 minutes at room temperature. Supernatant was aspirated off and analysed by HPLC. The concentration of test compound and metabolites were determined with reference to calibration curves run on that day in the same concentration range and under the same experimental conditions. In order to mimic conditions during the first passage of the drugs after intestinal absorption selected compounds were incubated in phosphate buffer at 37° C. in the presence of microsomes from human liver (HLM) and intestinal epithelium (HIM). The metabolic fate of the esters under these conditions was also determined by RPHPLC by measuring the concentration of drug and metabolites in the medium as a function of time. The identity of participating enzymes was confirmed by using purified enzyme in the case of plasma (BuChE) and by repeating the hydrolysis experiments in the presence of esterase specific inhibitors—isoOMPA for BuChE and BNPP for carboxylesterase. The BuChE activity of plasma and microsomal samples was determined using the Ellman assay (Ellman et al., 1964)."}, "TXB2 synthesis": {"test_system": "TXB2 synthesis", "test": "Inhibition of TXB2 synthesis in clotting whole blood (ELISA)", "format": "cell-based", "conditions": "1 hour at 37° C., listed as ISAS", "description": "TXA2 is highly evanescent and unsuitable for direct measurement but its metabolite TXB2 is generally believed to provide a useful index of the parent. […] The samples were then centrifuged. Serum was collected and TXB2 was measured using enzyme linked immunosorbent assay (ELISA) kits obtained from Cayman Chemicals."}, "[5]": {"test": "Hydrolysis in human blood", "format": "in vitro ADME"}, "[6]": {"conditions": "female, human, 0.1 mM, pH 7.4"}, "[7]": {"test": "Hydrolysis in the presence of human intestinal microsomes (HIM), with or without esterase inhibitors", "format": "in vitro ADME", "conditions": "0.1 mM, pH 7.4"}}, "note": "“Also recorded” adds a separate entry of the source. Read-outs that look alike come from different tables or passages of the source."}
{"smiles": "CC(=O)Oc1ccccc1C(=O)O[C@H]1CO[C@H]2[C@@H]1OC[C@H]2OC(=O)c1ccccc1O", "note": "[Compound 2, Isosorbide-2-aspirinate-5-salicylate]", "values": [{"measurement": "half-life at 2.4 µM", "setting": "in vitro", "result": 2, "unit": "min"}, {"measurement": "stability towards esterases found in CACO-2 cells", "setting": "[1]", "result": "stable"}, {"measurement": "Drug disappearance", "setting": "[2]; 50% Rabbit Plasma, conc drug 0.1 mM", "result": 20, "unit": "min"}, {"measurement": "Drug disappearance time", "setting": "[2]; rabbit, 0.1 mM, pH 7.4", "result": 10, "unit": "min"}, {"measurement": "potency relative to aspirin, inhibition of arachidonic acid-induced human platelet aggregation", "setting": "[3]", "result": "significantly more potent than aspirin"}, {"measurement": "conversion to aspirin in the presence of purified butyrylcholinesterase", "setting": "[4]", "result": "almost complete conversion to aspirin"}, {"measurement": "inhibition of TXB2 (TXA2) synthesis", "setting": "TXB2 synthesis", "result": "effective in preventing the TXA2 synthesis; also recorded: significantly more potent than aspirin"}, {"measurement": "half-life", "setting": "[5]", "result": "< 2", "unit": "min"}, {"measurement": "Drug disappearance", "setting": "[6]", "result": 10, "unit": "min"}, {"measurement": "Drug disappearance", "setting": "[7]", "result": 5, "unit": "min"}, {"measurement": "Drug disappearance: drug left", "setting": "[7]; 60 min", "result": 9.4, "unit": "μM left"}]}
